For the assay, the target named is T1, glucocorticoid receptor (Homo sapiens, UniProt P04150).
T1 construct: endogenous in cells; ATCC cat
T1 sequence (P04150 1-777): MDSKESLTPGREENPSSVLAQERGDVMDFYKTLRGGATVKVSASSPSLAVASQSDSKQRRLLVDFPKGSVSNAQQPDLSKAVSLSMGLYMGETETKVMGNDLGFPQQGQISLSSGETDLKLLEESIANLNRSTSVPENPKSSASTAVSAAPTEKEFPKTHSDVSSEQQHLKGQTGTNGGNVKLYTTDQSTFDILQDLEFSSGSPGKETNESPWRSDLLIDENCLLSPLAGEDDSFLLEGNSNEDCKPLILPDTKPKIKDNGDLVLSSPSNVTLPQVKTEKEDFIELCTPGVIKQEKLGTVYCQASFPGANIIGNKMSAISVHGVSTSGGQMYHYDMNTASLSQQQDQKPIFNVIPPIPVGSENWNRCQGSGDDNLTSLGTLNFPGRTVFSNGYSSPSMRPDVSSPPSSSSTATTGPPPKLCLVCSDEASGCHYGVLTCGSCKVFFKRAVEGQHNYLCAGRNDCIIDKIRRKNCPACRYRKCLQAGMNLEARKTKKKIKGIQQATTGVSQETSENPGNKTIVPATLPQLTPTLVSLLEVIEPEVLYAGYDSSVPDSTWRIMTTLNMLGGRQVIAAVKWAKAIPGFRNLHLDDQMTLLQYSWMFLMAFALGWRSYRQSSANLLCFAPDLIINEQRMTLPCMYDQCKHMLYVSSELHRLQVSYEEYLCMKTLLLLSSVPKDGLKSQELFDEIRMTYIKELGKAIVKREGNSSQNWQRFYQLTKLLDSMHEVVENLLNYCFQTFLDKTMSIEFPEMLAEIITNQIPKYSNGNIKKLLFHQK
As to the kind of experiment: Hep G2 TAT Ki: inhibition of dexamethasone-induced TAT in HepG2 cells (96 well). In kind it is cell-based. Conditions: challenge of 100 nM dexamethasone, IC50 converted to Ki by Cheng and Prusoff equation. The gist of the method: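 Cells lysed 15 min at 4 °C; TAT enzyme reaction 2 h at 37 °C, stopped with KOH, 30 min further at 37 °C. Inhibition fitted to 4-parameter logistic.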
By Ki is commonly meant the dissociation constant of the complex between target and ligand, obtained from inhibition or displacement. In the case of `Cc1cc2c(cnn2-c2ccc(F)cc2)cc1C1CN(S(=O)(=O)c2ccc(C#N)cc2)CCN1CCC(F)(F)F` (single isomer, unassigned) [Example 130, 4-((3-(1-(4-fluorophenyl)-6-methyl-1H-indazol-5-yl)-4-(3,3,3-trifluoropropyl)piperazin-1-yl)sulfonyl)benzonitrile], affinity was put at a Ki of 7.7 nM.

In turn, `CCn1cc(S(=O)(=O)N2CCN(CCC(F)(F)F)C(c3cc4cnn(-c5ccc(F)cc5)c4cc3C)C2)cn1` (single isomer, unassigned) [Example 131, 5-(4-((1-ethyl-1H-pyrazol-4-yl)sulfonyl)-1-(3,3,3-trifluoropropyl)piperazin-2-yl)-1-(4-fluorophenyl)-6-methyl-1H-indazole] had an inhibition constant Ki of 13 nM.

In turn, `Cc1cc2c(cnn2-c2ccc(F)cc2)cc1C1CN(S(=O)(=O)c2cccnc2)CCN1CCC(F)(F)F` (single isomer, unassigned) [Example 132, 1-(4-fluorophenyl)-6-methyl-5-(4-(pyridin-3-ylsulfonyl)-1-(3,3,3-trifluoropropyl)piperazin-2-yl)-1H-indazole] had a Ki of 13 nM. This lies in the double-digit nanomolar range.

`Cc1ncc(S(=O)(=O)N2CCN(CCC(F)(F)F)C(c3cc4cnn(-c5ccc(F)cc5)c4cc3C)C2)s1` (single isomer, unassigned) [Example 133, 5-((3-(1-(4-fluorophenyl)-6-methyl-1H-indazol-5-yl)-4-(3,3,3-trifluoropropyl)piperazin-1-yl)sulfonyl)-2-methylthiazole] registered an inhibition constant (Ki) of 11 nM. This Ki and that of the molecule before are within 1.5-fold of each other.

The molecule `Cc1nc(S(=O)(=O)N2CCN(CCC(F)(F)F)C(c3cc4cnn(-c5ccc(F)cc5)c4cc3C)C2)cs1` (single isomer, unassigned) [Example 134, 4-((3-(1-(4-fluorophenyl)-6-methyl-1H-indazol-5-yl)-4-(3,3,3-trifluoropropyl)piperazin-1-yl)sulfonyl)-2-methylthiazole] had an inhibitory constant (Ki) of 6.5 nM. Against the preceding molecule, the Ki is about 1.7-fold lower.

`CCn1ncc(S(=O)(=O)N2CCN(CCC(F)(F)F)C(c3cc4cnn(-c5ccc(F)cc5)c4cc3C)C2)n1` (single isomer, unassigned) [Example 135, 5-(4-((2-ethyl-2H-1,2,3-triazol-4-yl)sulfonyl)-1-(3,3,3-trifluoropropyl)piperazin-2-yl)-1-(4-fluorophenyl)-6-methyl-1H-indazole] showed a Ki of 23 nM.

`COCCn1cc(S(=O)(=O)N2CCN(CCC(F)(F)F)C(c3cc4cnn(-c5ccc(F)cc5)c4cc3C)C2)cn1` (single isomer, unassigned) [Example 136, 1-(4-fluorophenyl)-5-(4-((1-(2-methoxyethyl)-1H-pyrazol-4-yl)sulfonyl)-1-(3,3,3-trifluoropropyl)piperazin-2-yl)-6-methyl-1H-indazole] returned a Ki of 57 nM. This Ki is about 2.5-fold higher than that of the molecule before.

As for `Cc1cc2c(cnn2-c2ccc(F)cc2)cc1C1CN(S(=O)(=O)CC(C)C)CCN1CCC(F)(F)F` (single isomer, unassigned) [Example 137, 1-(4-fluorophenyl)-5-(4-(isobutylsulfonyl)-1-(3,3,3-trifluoropropyl)piperazin-2-yl)-6-methyl-1H-indazole], affinity was put at a Ki of 33 nM.

Molecule `Cc1cc2c(cnn2-c2ccc(F)cc2)cc1C1CN(S(=O)(=O)c2cnccc2C)CCN1CCC(F)(F)F` (single isomer, unassigned) [Example 138, 1-(4-fluorophenyl)-6-methyl-5-(4-((4-methylpyridin-3-yl)sulfonyl)-1-(3,3,3-trifluoropropyl)piperazin-2-yl)-1H-indazole] yielded a Ki of 35 nM. This Ki and that of the molecule before are within 1.5-fold of each other.

Regarding `Cc1cc2c(cnn2-c2ccc(F)cc2)cc1C1CN(S(=O)(=O)c2ccccn2)CCN1CCC(F)(F)F` (single isomer, unassigned) [Example 139, 1-(4-fluorophenyl)-6-methyl-5-(4-(pyridin-2-ylsulfonyl)-1-(3,3,3-trifluoropropyl)piperazin-2-yl)-1H-indazole], the affinity corresponds to a Ki of 37 nM.

Turning to `Cc1cc2c(cnn2-c2ccc(F)cc2)cc1C1CN(S(=O)(=O)C2CCC2)CCN1CCC(F)(F)F` (single isomer, unassigned) [Example 140, 5-(4-(cyclobutylsulfonyl)-1-(3,3,3-trifluoropropyl)piperazin-2-yl)-1-(4-fluorophenyl)-6-methyl-1H-indazole], the affinity corresponds to a Ki of 47 nM.

As to `Cc1cc2c(cnn2-c2ccc(F)cc2)cc1C1CN(S(=O)(=O)c2cnn(C)c2)CCN1CC(C)C(F)(F)F` (single isomer, unassigned) [Example 141, 1-(4-fluorophenyl)-6-methyl-5-(4-((1-methyl-1H-pyrazol-4-yl)sulfonyl)-1-(3,3,3-trifluoro-2-methylpropyl)piperazin-2-yl)-1H-indazole], the Ki was found to be 14 nM.

On to `Cc1cc2c(cnn2-c2ccc(F)cc2)cc1C1CN(S(=O)(=O)c2cnn(C)c2C)CCN1CC(C)C(F)(F)F` (single isomer, unassigned) [Example 142, 5-(4-((1,5-dimethyl-1H-pyrazol-4-yl)sulfonyl)-1-(3,3,3-trifluoro-2-methylpropyl)piperazin-2-yl)-1-(4-fluorophenyl)-6-methyl-1H-indazole], for which the affinity, expressed as Ki, was 13 nM.

`Cc1cc2c(cnn2-c2ccc(F)cc2)cc1C1CN(S(=O)(=O)c2ccc(C#N)cc2)CCN1CC(C)C(F)(F)F` (single isomer, unassigned) [Example 143, 4-((3-(1-(4-fluorophenyl)-6-methyl-1H-indazol-5-yl)-4-(3,3,3-trifluoro-2-methylpropyl)piperazin-1-yl)sulfonyl)benzonitrile] showed a Ki of 25 nM.

Molecule `CCn1cc(S(=O)(=O)N2CCN(CC(C)C(F)(F)F)C(c3cc4cnn(-c5ccc(F)cc5)c4cc3C)C2)cn1` (single isomer, unassigned) [Example 144, 5-(4-((1-ethyl-1H-pyrazol-4-yl)sulfonyl)-1-(3,3,3-trifluoro-2-methylpropyl)piperazin-2-yl)-1-(4-fluorophenyl)-6-methyl-1H-indazole] returned a Ki of 15 nM.

Take `Cc1cc2c(cnn2-c2ccc(F)cc2)cc1C1CN(S(=O)(=O)c2cccnc2)CCN1CC(C)C(F)(F)F` (single isomer, unassigned) [Example 145, 1-(4-fluorophenyl)-6-methyl-5-(4-(pyridin-3-ylsulfonyl)-1-(3,3,3-trifluoro-2-methylpropyl)piperazin-2-yl)-1H-indazole]: the Ki amounted to 8.5 nM.

Take `Cc1nc(S(=O)(=O)N2CCN(CC(C)C(F)(F)F)C(c3cc4cnn(-c5ccc(F)cc5)c4cc3C)C2)cs1` (single isomer, unassigned) [Example 146, 4-((3-(1-(4-fluorophenyl)-6-methyl-1H-indazol-5-yl)-4-(3,3,3-trifluoro-2-methylpropyl)piperazin-1-yl)sulfonyl)-2-methylthiazole]: the Ki was 7.5 nM.

`Cc1ncc(S(=O)(=O)N2CCN(CC(C)C(F)(F)F)C(c3cc4cnn(-c5ccc(F)cc5)c4cc3C)C2)s1` (single isomer, unassigned) [Example 147, 5-((3-(1-(4-fluorophenyl)-6-methyl-1H-indazol-5-yl)-4-(3,3,3-trifluoro-2-methylpropyl)piperazin-1-yl)sulfonyl)-2-methylthiazole] came in with a Ki of 11 nM.

`CCn1ncc(S(=O)(=O)N2CCN(CC(C)C(F)(F)F)C(c3cc4cnn(-c5ccc(F)cc5)c4cc3C)C2)n1` (single isomer, unassigned) [Example 148, 5-(4-((2-ethyl-2H-1,2,3-triazol-4-yl)sulfonyl)-1-(3,3,3-trifluoro-2-methylpropyl)piperazin-2-yl)-1-(4-fluorophenyl)-6-methyl-1H-indazole]: the Ki worked out at 38 nM.

The values are drawn from patent US12098144B2, “Piperazine indazole glucocorticoid receptor antagonists” (Corcept Therapeutics Incorporated, priority 2021, dated 2024).
